Values after ≈ are worked out from the molar mass of the structure shown. Active and inactive are the calls of the source. The rule behind the calls is not given here.
What was measured:
A549 = experiment: Cytotoxicity against human A549 cells after 3 days by SRB assay; assay type: functional, cell-based
MCF7 = experiment: Cytotoxicity against human MCF7 cells after 3 days by SRB assay; assay type: functional, cell-based
[1] = Therapeutic index, ratio of IC50 for human H9 cells to EC50 for HIV; assay type: cell-based; conditions: read-out: Ratio IC50/EC50
[2] = test system: Human immunodeficiency virus; experiment: Antiviral activity against HIV infected in human H9 cells; assay type: functional, organism-based; conditions: Human immunodeficiency virus 1, H9
H9 = experiment: Cytotoxicity against human H9 cells; assay type: cell-based

EC50 [2] [µg/mL] | SMILES | Activity (A549) | Activity (MCF7) | selectivity ratio [1] | IC50 (H9) [µg/mL]
– | COc1cc(/C=C/C(=O)NCCc2ccc(O[C@@H]3O[C@H](CO)[C@@H](O)[C@H](O)[C@H]3O)c(OC)c2)ccc1O[C@@H]1O[C@H](CO)[C@@H](O)[C@H](O)[C@H]1O | inactive | inactive | – | –
– | O=C(O)c1cc2c(c3c1ccc1ccccc13)OCO2 | inactive | inactive | – | –
17.5 (≈ 67.8 µM) | CC1=C2OC(C)(C)c3c(O)cc(C)c(c32)C(=O)C1=O [DEHYDROOXOPEREZINONE] | inactive | inactive | 1.43 | 25.1 (≈ 97.2 µM)

— ChEMBL document CHEMBL1146558, “Constituents from the stems of Aristolochia manshuriensis” (J Nat Prod, 2003)
